In the assay the target is T1, human EP2 receptor (Homo sapiens, UniProt P43116).
T1 construct: host or cells: HEK293
The assay is described as follows: Measurement of EP2 receptor binding action ([3H]prostaglandin E2 displacement, membrane fraction of HEK293 cells). The conditions noted are these: tested as active form (R1 = hydroxy group) of the example compound; [3H]prostaglandin E2 10 nM, 60 minutes at 30° C. The procedure: Measurement of EP2 receptor binding action was carried out in compliance with the method of Abramovitz et al. (Biochimica et Biophysica Acta, 1483, 285 (2000)). A test compound (a compound wherein R^1 in the compound represented by the formula (I) of the present invention is a hydroxy group) dissolved in dimethylsulfoxide and [^3H]prostaglandin E2 (NET-428, available from PerkinElmer) (final concentration: 10 nM) were added to a buffer solution (10 mM MES-KOH (pH 6.0), 10 mM MgCl2, 1 mM EDTA) in which was suspended 10 μg of a membrane fraction of HEK293 cells expressing human EP2 receptor (ES-562-M, available from Euroscreen) followed by incubating for 60 minutes at 30° C. The membrane fraction was recovered on glass fiber filter paper (GF/B, available from Whatmann) using a cell harvester (M30R, Brandel), and after washing with a buffer solution (10 mM MES-KOH (pH 6.0), 10 mM MgCl2), radioactivity was measured with a liquid scintillation analyzer (2000CA, Packard).
Ki=IC50/(1+([^3H]prostaglandin E2 concentration/Kd))
The dissociation constant (Kd value) was calculated by Scatchard analysis.

T1 sequence (P43116 whole entry): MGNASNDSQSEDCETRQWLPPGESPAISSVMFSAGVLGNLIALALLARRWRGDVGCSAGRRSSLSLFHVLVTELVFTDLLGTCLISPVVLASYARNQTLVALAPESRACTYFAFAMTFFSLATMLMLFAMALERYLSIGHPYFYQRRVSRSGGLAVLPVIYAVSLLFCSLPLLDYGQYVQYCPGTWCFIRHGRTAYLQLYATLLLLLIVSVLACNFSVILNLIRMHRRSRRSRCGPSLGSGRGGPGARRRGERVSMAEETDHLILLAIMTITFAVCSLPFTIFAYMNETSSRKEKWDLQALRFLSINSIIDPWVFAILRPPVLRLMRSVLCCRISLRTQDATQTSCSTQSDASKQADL

For orientation: Ki means a measure of affinity in units of concentration, obtained from inhibition or displacement. With “(2,2,2-Trifluoroethyl)(6-{[4-(pyrazol-1-yl)benzyl](pyridin-3-ylsulfonyl)aminomethyl}-pyridin-2-ylamino)acetate [Example 11]”, the affinity, expressed as Ki, was 13 nM. In turn, “(5-Phenylpentyl)(6-{(pyridin-2-ylsulfonyl)[4-(thiazol-2-yl)benzyl]aminomethyl}-pyridin-2-ylamino)acetate [Example 1]” returned a Ki of 1.9 nM.
